The values below come from article PMC7226989, “Establishment of an in Vitro Human Blood-Brain Barrier Model Derived from Induced Pluripotent Stem Cells and Comparison to a Porcine Cell-Based System” (Cells, 2020).

Like-named read-outs stand apart in the source and are kept apart here.

Data set [1] in a line: Permeability assay across hiPSC-derived BMECs clone 2 on Transwell, co-culture with human astrocytes.
A short description of data set [2]: in vitro. Particulars: human.
Data set [3] relates to hiPSC-derived BMECs (Cl1). The data set can be described thus: Permeability assay across hiPSC-derived BMECs clone 1 on Transwell, co-culture with human astrocytes.
In data set [4] the test system is hiPSC-derived BMECs (Cl1).
The subject of data set [5] is hiPSC-derived BMECs.
Data set [6] is described as follows: in vitro. The note with it: human. This is another data set of the same source.
In data set [7] the test system is hiPSC-derived BMECs (IMR-90). The note with it: cited from earlier work.
Data set [8] relates to hiPSC-derived BMECs (r-iSPC 1j cells). On the set-up: method as in Delsing et al. 34. Particulars: ref Delsing et al. 34; cited from earlier work.
Data set [9] has as its system primary porcine brain endothelial cells (PBECs). The note with it: cited from earlier work.
Data set [10] is described as follows: Human BBB model permeability, clone not specified or both clones. The note with it: human.
Data set [11] has as its system hiPSC-derived BMECs. Described as above. The note with it: for Permeability classification in words: human BBB model, for several compounds stated for both human and porcine models.
Data set [12] has as its system human endothelial cell line hCMEC/D3. Details: method as in PMID 30374619. The note with it: cited from earlier work.
In data set [13] the test system is hiPSC-derived BMECs. The note with it: ref Lippmann 6; cited from earlier work.
The nature of data set [14]: Permeability assay across hiPSC-derived BMECs clone 1 on Transwell, co-culture with human astrocytes.
Data set [15] deals with primary porcine brain endothelial cells (PBECs). The data set can be described thus: Porcine BBB model transport assay. The note with it: porcine vs human.
Data set [16] has as its system hiPSC-derived BMECs (Cl2).

Take `CC(=O)O[C@H]1C(=O)[C@@]2(C)[C@H]([C@H](OC(=O)c3ccccc3)[C@]3(O)C[C@H](OC(=O)[C@H](O)[C@@H](NC(=O)c4ccccc4)c4ccccc4)C(C)=C1C3(C)C)[C@]1(OC(C)=O)CO[C@@H]1C[C@@H]2O` [taxol]: the apparent permeability coefficient (Papp) in [1] was 4.9 ± 1 ×10⁻⁶ cm/s. Besides, in “in vitro [2]”, the apparent permeability from apical to basolateral (Papp A→B) was determined as 6.3 ± 0.6 ×10⁻⁶ cm/s, the Papp B→A was found to be 15.4 ± 0.5 ×10⁻⁶ cm/s and the efflux ratio worked out at 2.4. This compound displayed a Papp in “in vitro [2]” (Permeability human BBB_Cl1) of 6.8 ± 0.7 ×10⁻⁶ cm/s.

Consider `CC(C)C[C@H](N)C(=O)O` [leucine], for which the “Reduction of transport in the presence of JPH203” value in data set [3] (10 µM JPH203, selective LAT1 inhibitor) is on record as “about 70%”. Also, the values for the Papp (in data set [1]; in “in vitro [2]” (Permeability human BBB_Cl1); in “in vitro [6]”) were 19.9 ± 6.4 ×10⁻⁶ cm/s, 18 ± 1.8 ×10⁻⁶ cm/s and 18 to 20 ×10⁻⁶ cm/s, respectively. Further, the “Vectorial transport, AB direction over BA direction” value in data set [4] was “three-fold”. In the data set with hiPSC-derived BMECs [5], the “Fold higher permeability in the human than in the porcine model” value is listed as “about three-fold”. Also, in the data set on hiPSC-derived BMECs [5], the “Permeability classification in words” value is reported as “highly permeable”. The apparent permeability from apical to basolateral (Papp A→B) in the data set “in vitro [2]” stood at 18.5 ± 2.2 ×10⁻⁶ cm/s. Also, the apparent permeability from basolateral to apical (Papp B→A) in “in vitro [2]” amounted to 6.4 ± 0.7 ×10⁻⁶ cm/s.

For `CC(C)NCC(O)COc1cccc2ccccc12` (stereo not shown) [propranolol], the Papp in data set [1] is 22 ± 2.4 ×10⁻⁶ cm/s; in “in vitro [2]” (Permeability human BBB_Cl1), 25.8 ± 4.6 ×10⁻⁶ cm/s; in “in vitro [6]”, 22 to 26 ×10⁻⁶ cm/s. Further, the Published permeability entry was “around 30 × 10^−6 cm/s” in data set [7] (ref Mantle et al. 35) and 22.6 ×10⁻⁶ cm/s in [8]. Further, the “Permeability classification in words” value in the data set on hiPSC-derived BMECs [5] is “highly permeable”.

Regarding `CCC(=O)CCCCCC(NC(=O)C1CN(C)C1)c1ncc(-c2cc3ccccc3nc2OC)o1` (stereo not shown) [cpK], the “Permeability porcine BBB” value in data set [9] was 10.5 ± 3.4 x10^-6 cm/s. The compound also came in with a Papp in [10] of 15.4 ± 8.3 ×10⁻⁶ cm/s. Moreover, in the data set with hiPSC-derived BMECs [11], the “Permeability classification in words” value is “medium permeability”.

On to `CC[C@]1(O)C[C@@H]2CN(CCc3c([nH]c4ccccc34)[C@@](C(=O)OC)(c3cc4c(cc3OC)N(C)[C@H]3[C@@](O)(C(=O)OC)[C@H](OC(C)=O)[C@]5(CC)C=CCN6CC[C@]43[C@@H]65)C2)C1` [vinblastine], for which the apparent permeability coefficient (Papp) in data set [1] is 3.5 ± 0.8 ×10⁻⁶ cm/s. Further, in the data set on hiPSC-derived BMECs [5], the “Fold higher permeability in the human than in the porcine model” value is reported as “two-fold” and the “Permeability classification in words” value was “medium permeability”. For the same compound, the efflux ratio in “in vitro [2]” is 1.5. The compound also showed an apparent permeability coefficient (Papp) in “in vitro [2]” (Permeability human BBB_Cl1) of 4.1 ± 0.4 ×10⁻⁶ cm/s.

`CC(C)C[C@H](CN)CC(=O)O` [pregabalin]: the “Inhibition in the uptake after LAT-1 mRNA silencing” value in data set [12] is listed as 75%.

Turning to `OC[C@H]1OC(O)[C@H](O)[C@@H](O)[C@@H]1O` (stereo partly shown) [glucose], the “Permeability in the porcine model” value in data set [9] is 7 ×10⁻⁶ cm/s. In data set [3] (200 µM phloretin), the “Inhibition of transport by phloretin” value was approximately 80%. Also, the apparent permeability (Papp) in data set [1] is 25.2 ± 7.9 ×10⁻⁶ cm/s; in “in vitro [2]” (Permeability human BBB_Cl1) it was 25 ± 2.7 ×10⁻⁶ cm/s. Further, the “Fold higher permeability in the human than in the porcine model” value in the data set with hiPSC-derived BMECs [5] (human and pig) is “more than 3.5”.

Turning to `Cn1c(=O)c2c(ncn2C)n(C)c1=O` [caffeine], the Papp in [1] was 26.5 ± 0.6 ×10⁻⁶ cm/s; in the data set “in vitro [2]” (Permeability human BBB_Cl1), 30.7 ± 2 ×10⁻⁶ cm/s; in “in vitro [6]”, 27 to 31 ×10⁻⁶ cm/s. For the same compound, the Published permeability in data set [7] (IMR-90 cells, ref Appelt-Menzel et al. 36) was 25.3 ×10⁻⁶ cm/s. For the same compound, in the data set with hiPSC-derived BMECs [5], the “Permeability classification in words” value is listed as “highly permeable”.

As to `COc1cc2nc(N3CCN(C(=O)c4ccco4)CC3)nc(N)c2cc1OC` [prazosin], the values for the Published permeability (in the data set on hiPSC-derived BMECs [13]; in [7] (ref Kurosawa 20)) were 4.3 ×10⁻⁶ cm/s and 8.7 ×10⁻⁶ cm/s, respectively.

Take `COc1cccc2c1C(=O)c1c(O)c3c(c(O)c1C2=O)C[C@@](O)(C(C)=O)C[C@@H]3O[C@H]1C[C@H](N)[C@H](O)[C@H](C)O1` [daunomycin]: the Papp was 6.5 ± 0.7 ×10⁻⁶ cm/s in data set [1], 9.3 ± 2.7 ×10⁻⁶ cm/s in the data set “in vitro [2]” (Permeability human BBB_Cl1) and 7 to 9 ×10⁻⁶ cm/s in the data set “in vitro [6]”. The “Fold higher permeability in the human than in the porcine model” value in the data set with hiPSC-derived BMECs [5] is “two-fold”. Also, the “Permeability classification in words” value in the data set with hiPSC-derived BMECs [5] is listed as “medium permeability”.

Turning to `CC(C)[C@H](NC(=O)[C@H](CCC(=O)O)NC(=O)[C@H](Cc1ccccc1)NC(=O)[C@@H](C)NC(=O)[C@@H](N)Cc1ccc(O)cc1)C(=O)N[C@H](C(=O)NCC(N)=O)C(C)C` [[D-Ala2]deltorphin II], the Papp stood at 7.7 ± 1.7 ×10⁻⁶ cm/s. The apparent permeability coefficient (Papp) in [14] stood at 3.8 ± 0.5 ×10⁻⁶ cm/s. In addition, in the data set on hiPSC-derived BMECs [11], the “Permeability classification in words” value is given as “moderate permeability”. Further, the “Fold higher permeability in the porcine than in the human model” value in data set [15] is listed as “two-fold”.

`N[C@@H](Cc1ccccc1)C(=O)O` [phenylalanine] registered a Papp in data set [1] of 28.6 ± 5.7 ×10⁻⁶ cm/s. The “Fold higher permeability in the human than in the porcine model” value in the data set with hiPSC-derived BMECs [11] (human vs porcine) was “two-fold”.

Regarding `CN(Cc1cnc2nc(N)nc(N)c2n1)c1ccc(C(=O)N[C@@H](CCC(=O)O)C(=O)O)cc1` [methotrexate], the Papp in data set [1] stood at 0.77 ± 0.1 ×10⁻⁶ cm/s; in the data set “in vitro [2]” (Permeability human BBB_Cl1) it was 0.65 ± 0.12 ×10⁻⁶ cm/s. For the same compound, the “Fold higher permeability in the porcine than in the human model” value in [15] is recorded as “eight times”.

`C[C@H]1O[C@@H](O[C@H]2[C@@H](O)C[C@H](O[C@H]3[C@@H](O)C[C@H](O[C@H]4CC[C@@]5(C)[C@H](CC[C@@H]6[C@@H]5C[C@@H](O)[C@]5(C)[C@@H](C7=CC(=O)OC7)CC[C@]65O)C4)O[C@@H]3C)O[C@@H]2C)C[C@H](O)[C@@H]1O` [digoxin]: the basolateral-to-apical permeability (Papp B→A) in “in vitro [2]” was found to be 7.3 ± 0.6 ×10⁻⁶ cm/s.

Consider lucifer yellow, for which, in data set [4], the “Permeability A-B” value is recorded as 0.15 ± 0.001 x10^-6 cm/s, the “Permeability B-A” value is given as 0.13 ± 0.004 x10^-6 cm/s, the Permeability fresh is 0.21 ± 0.12 x10^-6 cm/s and the Permeability frozen is reported as 0.09 ± 0.04 x10^-6 cm/s. In data set [4], the “Permeability human BBB_Cl1” value is 0.18 ± 0.11 x10^-6 cm/s and the efflux ratio was found to be 0.9. In data set [16], the “Permeability human BBB_Cl2” value was 0.33 ± 0.30 x10^-6 cm/s.

Consider `OC[C@@H](O)[C@@H](O)[C@H](O)[C@H](O)CO` [mannitol], for which the apparent permeability (Papp) in [1] stood at 0.8 ± 0.1 ×10⁻⁶ cm/s; in the data set “in vitro [2]” (Permeability fresh), 0.56 ± 0.28 ×10⁻⁶ cm/s; in “in vitro [2]” (Permeability frozen) it was 0.67 ± 0.25 ×10⁻⁶ cm/s; in “in vitro [2]” (Permeability human BBB_Cl1) it was 0.6 ± 0.24 ×10⁻⁶ cm/s.

On to `NCC1(CC(=O)O)CCCCC1` [gabapentin], for which the Papp stood at 11.9 ± 2.9 ×10⁻⁶ cm/s in data set [14] (human) and 12 ×10⁻⁶ cm/s in the data set “in vitro [6]”. The “Permeability classification in words” value in the data set on hiPSC-derived BMECs [11] was “moderate to high permeability”.

As to `O=C1NC(=O)C(c2ccccc2)(c2ccccc2)N1` [phenytoin], the Papp in data set [14] (human, Permeability human BBB_Cl1, Figure 5C, mean ± sd) was 21.3 ± 2.1 ×10⁻⁶ cm/s; in [1], 18.6 ± 0.9 ×10⁻⁶ cm/s; in data set [10] it was 19 to 21 ×10⁻⁶ cm/s. Moreover, in data set [8], the Published permeability is 35.6 ×10⁻⁶ cm/s. Also, the “Permeability classification in words” value with hiPSC-derived BMECs [11] is on record as “highly permeable”.

As to `O=C(O)c1cc(=O)c2ccccc2[nH]1` [kynurenic acid], the “Permeability in porcine (unit not given)” value in data set [9] (porcine model) is 2.8. For the same compound, the “Permeability classification in words” value in the data set with hiPSC-derived BMECs [5] is given as “low permeability”. Moreover, the apparent permeability (Papp) amounted to 0.32 ± 0.06 ×10⁻⁶ cm/s in the data set “in vitro [2]” (Permeability human BBB_Cl1) and 0.3 ×10⁻⁶ cm/s in the data set “in vitro [6]”.

What is called Papp is the rate of passage across a membrane or cell layer, normalised by area and donor concentration. Read a high Papp as ready permeation. The term Papp A→B denotes the apparent permeability from the apical to the basolateral side of a cell layer. High values mean fast passage, low ones slow passage. A word on the Papp B→A: it is how fast a substance crosses the layer from the basolateral side. As usually defined, the efflux ratio is a quotient of directional permeabilities that is used to spot active efflux.
